Tests used:
[1] = biological target: Sigma non-opioid intracellular receptor 1 (Homo sapiens) (UniProt Q99720); details: Compound concentration 10.0 uM
D(1A) dopamine receptor = D(1A) dopamine receptor (Homo sapiens, UniProt P21728); experiment: GPCRScan assay: inhibition of D1; design: radioligand conc. used [nm] 0.6 – 1.3, parental cells HEKT
[2] = test system: Tyrosine-protein kinase ABL1 (Homo sapiens), P00519 [H396P]; details: Compound concentration 1000.0 nM
[3] = biological target: Tyrosine-protein kinase receptor Tie-1 (Homo sapiens) (UniProt P35590); details: Compound concentration 1000.0 nM
Histamine H4 receptor = Histamine H4 receptor (Homo sapiens, UniProt Q9H3N8); experiment: H4 (h) CEREP ligand profiling; details: Compound concentration 10.0 uM
Thromboxane A2 receptor = Thromboxane A2 receptor (Homo sapiens, UniProt P21731); experiment: Binding assay (TBXA2R)
[4] = biological target: Serine/threonine-protein kinase PAK 4 (Homo sapiens) (UniProt O96013); details: Compound concentration 1000.0 nM
[5] = biological target: 1-phosphatidylinositol 3-phosphate 5-kinase (Homo sapiens) (UniProt Q9Y2I7); details: Compound concentration 1000.0 nM
[6] = biological target: STE20-like serine/threonine-protein kinase (Homo sapiens) (UniProt Q9H2G2); details: Compound concentration 1000.0 nM
[7] = biological target: Leukotriene B4 receptor 1 (Homo sapiens, UniProt Q15722); experiment: LTB4 (h) (BLT1) CEREP ligand profiling
[8] = biological target: Mitogen-activated protein kinase kinase kinase kinase 1 (Homo sapiens) (UniProt Q92918); details: Compound concentration 1000.0 nM
[9] = biological target: Beta-1 adrenergic receptor (Homo sapiens) (UniProt P08588); experiment: beta 1 (h) CEREP ligand profiling; details: Compound concentration 10.0 uM
[10] = biological target: Phosphodiesterase 6 (Homo sapiens) (UniProt Q13956+P18545+P35913+O43924+P16499+P51160); experiment: PDE6 CEREP ligand profiling; type: protein assay; details: Compound concentration 10.0 uM
[11] = biological target: Serine/threonine-protein kinase TAO3 (Homo sapiens) (UniProt Q9H2K8); details: Compound concentration 1000.0 nM
[12] = biological target: Serine/threonine-protein kinase WNK1 (Homo sapiens) (UniProt Q9H4A3); details: Compound concentration 1000.0 nM
[13] = biological target: 5-hydroxytryptamine receptor 5A (Homo sapiens) (UniProt P47898); details: Compound concentration 10.0 uM
[14] = biological target: Bone morphogenetic protein receptor type-1B (Homo sapiens) (UniProt O00238); details: Compound concentration 1000.0 nM
[15] = biological target: Dual specificity mitogen-activated protein kinase kinase 4 (Homo sapiens) (UniProt P45985); details: Compound concentration 1000.0 nM
[16] = biological target: Beta-3 adrenergic receptor (Homo sapiens) (UniProt P13945); experiment: beta 3 (h) CEREP ligand profiling; details: Compound concentration 10.0 uM
[17] = biological target: Serine/threonine-protein kinase SIK3 (Homo sapiens) (UniProt Q9Y2K2); details: Compound concentration 1000.0 nM
[18] = biological target: NUAK family SNF1-like kinase 1 (Homo sapiens) (UniProt O60285); details: Compound concentration 1000.0 nM
[19] = test system: Hepatocyte growth factor receptor (Homo sapiens), P08581 [Y1235D]; details: Compound concentration 1000.0 nM
[20] = biological target: Cytoplasmic tyrosine-protein kinase BMX (Homo sapiens) (UniProt P51813); details: Compound concentration 1000.0 nM
[21] = biological target: Serine/threonine-protein kinase 36 (Homo sapiens) (UniProt Q9NRP7); details: Compound concentration 1000.0 nM
[22] = biological target: Histamine H3 receptor (Homo sapiens) (UniProt Q9Y5N1); experiment: H3 (h) CEREP ligand profiling; details: Compound concentration 10.0 uM
[23] = biological target: Dual specificity protein kinase CLK3 (Homo sapiens) (UniProt P49761); details: Compound concentration 1000.0 nM
[24] = biological target: Tyrosine-protein kinase Fer (Homo sapiens) (UniProt P16591); details: Compound concentration 1000.0 nM
[25] = biological target: Serine/threonine-protein kinase PAK 1 (Homo sapiens) (UniProt Q13153); details: Compound concentration 1000.0 nM
[26] = biological target: Cyclin-dependent kinase-like 3 (Homo sapiens) (UniProt Q8IVW4); details: Compound concentration 1000.0 nM
[27] = biological target: Tyrosine-protein kinase ZAP-70 (Homo sapiens) (UniProt P43403); experiment: ZAP70 kinase (h) CEREP ligand profiling; details: Compound concentration 10.0 uM
[28] = biological target: MAP kinase-interacting serine/threonine-protein kinase 2 (Homo sapiens) (UniProt Q9HBH9); details: Compound concentration 1000.0 nM
[29] = biological target: Serine/threonine-protein kinase Nek11 (Homo sapiens) (UniProt Q8NG66); details: Compound concentration 1000.0 nM
[30] = biological target: Sigma intracellular receptor 2 (Homo sapiens) (UniProt Q5BJF2); details: Compound concentration 10.0 uM
[31] = biological target: Serine/threonine-protein kinase WNK4 (Homo sapiens) (UniProt Q96J92); details: Compound concentration 1000.0 nM
[32] = biological target: MAP kinase-activated protein kinase 5 (Homo sapiens) (UniProt Q8IW41); details: Compound concentration 1000.0 nM
[33] = biological target: Phosphatidylinositol 4-phosphate 5-kinase type-1 gamma (Homo sapiens) (UniProt O60331); details: Compound concentration 1000.0 nM
[34] = biological target: Serine/threonine-protein kinase 38-like (Homo sapiens) (UniProt Q9Y2H1); details: Compound concentration 1000.0 nM
[35] = biological target: 5-hydroxytryptamine receptor 1A (Homo sapiens) (UniProt P08908); experiment: 5-HT1A (h) CEREP ligand profiling; details: Compound concentration 10.0 uM
[36] = biological target: 5-hydroxytryptamine receptor 2B (Homo sapiens) (UniProt P41595); experiment: 5-HT2B (h) (agonist site/DOI) CEREP ligand profiling; details: Compound concentration 10.0 uM
[37] = test system: Proto-oncogene tyrosine-protein kinase receptor Ret (Homo sapiens), P07949 [V804L]; details: Compound concentration 1000.0 nM
[38] = biological target: Bone morphogenetic protein receptor type-2 (Homo sapiens) (UniProt Q13873); details: Compound concentration 1000.0 nM
[39] = biological target: Myotonin-protein kinase (Homo sapiens) (UniProt Q09013); details: Compound concentration 1000.0 nM
[40] = biological target: Melatonin receptor type 1A (Homo sapiens) (UniProt P48039); experiment: ML1 CEREP ligand profiling; details: Compound concentration 10.0 uM
[41] = biological target: MAP/microtubule affinity-regulating kinase 3 (Homo sapiens) (UniProt P27448); details: Compound concentration 1000.0 nM
[42] = biological target: Serine/threonine-protein kinase ULK2 (Homo sapiens) (UniProt Q8IYT8); details: Compound concentration 1000.0 nM

Sequence of Leukotriene B4 receptor 1 (Q15722 whole entry): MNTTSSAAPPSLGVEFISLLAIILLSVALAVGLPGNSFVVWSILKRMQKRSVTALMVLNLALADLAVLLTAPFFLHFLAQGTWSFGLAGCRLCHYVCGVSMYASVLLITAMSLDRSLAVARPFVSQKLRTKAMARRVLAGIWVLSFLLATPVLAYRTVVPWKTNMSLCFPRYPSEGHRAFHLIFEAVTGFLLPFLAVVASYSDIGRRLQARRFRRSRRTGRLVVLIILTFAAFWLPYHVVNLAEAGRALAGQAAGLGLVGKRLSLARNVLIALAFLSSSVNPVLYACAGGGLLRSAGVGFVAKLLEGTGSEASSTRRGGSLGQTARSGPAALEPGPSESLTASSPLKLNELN
Sequence of Cyclin-dependent kinase-like 3 (Homo sapiens) (Q8IVW4 whole entry, looked up): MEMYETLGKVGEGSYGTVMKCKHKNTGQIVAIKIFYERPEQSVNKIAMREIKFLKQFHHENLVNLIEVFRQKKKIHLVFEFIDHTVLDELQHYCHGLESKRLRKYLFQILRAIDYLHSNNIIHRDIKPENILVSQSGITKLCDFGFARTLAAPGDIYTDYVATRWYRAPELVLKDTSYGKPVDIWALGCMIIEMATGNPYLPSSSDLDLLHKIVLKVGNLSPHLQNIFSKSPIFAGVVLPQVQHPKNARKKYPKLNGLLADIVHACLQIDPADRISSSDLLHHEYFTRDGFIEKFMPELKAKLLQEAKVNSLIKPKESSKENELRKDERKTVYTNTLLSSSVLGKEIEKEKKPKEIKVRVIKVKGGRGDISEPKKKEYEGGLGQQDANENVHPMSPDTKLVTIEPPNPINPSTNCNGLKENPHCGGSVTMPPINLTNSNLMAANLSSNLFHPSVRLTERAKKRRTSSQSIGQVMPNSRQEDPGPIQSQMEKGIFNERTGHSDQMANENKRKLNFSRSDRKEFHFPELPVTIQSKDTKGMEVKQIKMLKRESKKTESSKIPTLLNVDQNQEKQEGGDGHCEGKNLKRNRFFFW
Sequence of STE20-like serine/threonine-protein kinase (Homo sapiens) (Q9H2G2 whole entry, looked up): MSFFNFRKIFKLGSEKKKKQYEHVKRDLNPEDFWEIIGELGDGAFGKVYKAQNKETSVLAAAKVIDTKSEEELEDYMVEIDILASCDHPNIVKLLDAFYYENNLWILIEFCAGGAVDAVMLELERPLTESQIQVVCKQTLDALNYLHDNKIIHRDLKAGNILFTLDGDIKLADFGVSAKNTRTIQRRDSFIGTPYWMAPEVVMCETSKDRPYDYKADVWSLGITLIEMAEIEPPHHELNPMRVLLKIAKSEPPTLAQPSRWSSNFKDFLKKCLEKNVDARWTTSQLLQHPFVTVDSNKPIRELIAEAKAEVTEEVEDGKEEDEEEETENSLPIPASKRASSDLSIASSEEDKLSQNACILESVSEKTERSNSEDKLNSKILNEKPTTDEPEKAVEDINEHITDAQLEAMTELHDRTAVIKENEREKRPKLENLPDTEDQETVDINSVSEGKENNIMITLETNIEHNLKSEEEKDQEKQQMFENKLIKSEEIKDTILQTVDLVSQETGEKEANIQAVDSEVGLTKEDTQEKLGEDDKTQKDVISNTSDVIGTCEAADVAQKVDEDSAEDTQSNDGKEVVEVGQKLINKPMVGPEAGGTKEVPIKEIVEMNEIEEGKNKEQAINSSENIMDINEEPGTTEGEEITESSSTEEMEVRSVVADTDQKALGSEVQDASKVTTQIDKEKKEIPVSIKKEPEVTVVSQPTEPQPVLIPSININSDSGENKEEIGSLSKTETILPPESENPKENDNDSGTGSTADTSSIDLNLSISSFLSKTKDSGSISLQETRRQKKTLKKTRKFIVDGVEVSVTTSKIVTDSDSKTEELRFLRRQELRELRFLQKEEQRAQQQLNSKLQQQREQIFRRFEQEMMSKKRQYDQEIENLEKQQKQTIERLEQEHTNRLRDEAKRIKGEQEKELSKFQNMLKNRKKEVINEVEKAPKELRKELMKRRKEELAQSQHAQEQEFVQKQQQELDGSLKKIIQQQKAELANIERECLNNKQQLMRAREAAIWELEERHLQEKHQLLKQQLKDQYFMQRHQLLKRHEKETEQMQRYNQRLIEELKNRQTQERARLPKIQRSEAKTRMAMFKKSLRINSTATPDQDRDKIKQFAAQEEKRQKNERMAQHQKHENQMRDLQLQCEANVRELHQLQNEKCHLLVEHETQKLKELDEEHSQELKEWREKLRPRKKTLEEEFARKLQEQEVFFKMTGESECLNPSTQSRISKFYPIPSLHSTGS
Sequence of Proto-oncogene tyrosine-protein kinase receptor Ret (Homo sapiens), P07949 [V804L] (P07949 whole entry V804L): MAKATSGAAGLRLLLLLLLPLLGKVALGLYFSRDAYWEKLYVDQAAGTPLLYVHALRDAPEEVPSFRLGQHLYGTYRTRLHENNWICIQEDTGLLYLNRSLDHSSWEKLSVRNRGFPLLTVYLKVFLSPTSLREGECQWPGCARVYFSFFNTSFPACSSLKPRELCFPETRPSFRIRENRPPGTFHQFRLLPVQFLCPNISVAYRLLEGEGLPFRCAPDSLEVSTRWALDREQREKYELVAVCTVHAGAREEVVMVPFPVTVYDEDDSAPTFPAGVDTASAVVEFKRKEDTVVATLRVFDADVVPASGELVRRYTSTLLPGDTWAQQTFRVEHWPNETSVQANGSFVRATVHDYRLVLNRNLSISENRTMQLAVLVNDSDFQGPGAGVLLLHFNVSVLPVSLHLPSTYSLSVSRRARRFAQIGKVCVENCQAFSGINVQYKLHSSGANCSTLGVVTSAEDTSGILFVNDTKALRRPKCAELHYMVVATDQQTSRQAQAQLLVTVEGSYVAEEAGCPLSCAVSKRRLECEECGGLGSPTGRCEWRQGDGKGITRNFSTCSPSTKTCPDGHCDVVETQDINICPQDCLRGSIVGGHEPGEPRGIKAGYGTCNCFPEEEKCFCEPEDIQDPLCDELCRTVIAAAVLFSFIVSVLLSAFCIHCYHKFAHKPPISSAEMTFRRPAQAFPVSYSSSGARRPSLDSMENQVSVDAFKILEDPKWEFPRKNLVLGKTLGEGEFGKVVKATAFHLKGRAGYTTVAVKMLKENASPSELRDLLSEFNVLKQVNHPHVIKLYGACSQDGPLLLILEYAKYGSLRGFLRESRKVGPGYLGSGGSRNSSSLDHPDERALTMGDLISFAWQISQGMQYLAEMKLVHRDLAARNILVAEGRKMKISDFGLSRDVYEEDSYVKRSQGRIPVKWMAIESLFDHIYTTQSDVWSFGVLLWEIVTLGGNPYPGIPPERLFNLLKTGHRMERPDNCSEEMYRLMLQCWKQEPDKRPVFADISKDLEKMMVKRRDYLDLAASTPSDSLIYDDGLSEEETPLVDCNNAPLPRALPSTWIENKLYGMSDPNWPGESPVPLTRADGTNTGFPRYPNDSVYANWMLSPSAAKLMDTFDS
Sequence of 5-hydroxytryptamine receptor 2B (Homo sapiens) (P41595 whole entry): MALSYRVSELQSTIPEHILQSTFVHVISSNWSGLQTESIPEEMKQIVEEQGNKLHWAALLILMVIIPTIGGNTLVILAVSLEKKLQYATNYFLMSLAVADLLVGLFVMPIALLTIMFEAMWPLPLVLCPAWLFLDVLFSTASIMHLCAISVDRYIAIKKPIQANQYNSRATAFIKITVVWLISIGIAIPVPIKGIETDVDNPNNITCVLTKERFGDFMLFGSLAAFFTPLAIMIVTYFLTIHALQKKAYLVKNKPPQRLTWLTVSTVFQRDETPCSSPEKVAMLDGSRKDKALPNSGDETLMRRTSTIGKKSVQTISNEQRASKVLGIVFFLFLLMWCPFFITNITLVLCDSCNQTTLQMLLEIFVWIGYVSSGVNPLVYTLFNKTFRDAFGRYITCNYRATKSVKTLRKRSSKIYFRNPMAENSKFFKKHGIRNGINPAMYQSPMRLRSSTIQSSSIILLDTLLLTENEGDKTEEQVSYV
Sequence of Serine/threonine-protein kinase Nek11 (Homo sapiens) (Q8NG66 whole entry): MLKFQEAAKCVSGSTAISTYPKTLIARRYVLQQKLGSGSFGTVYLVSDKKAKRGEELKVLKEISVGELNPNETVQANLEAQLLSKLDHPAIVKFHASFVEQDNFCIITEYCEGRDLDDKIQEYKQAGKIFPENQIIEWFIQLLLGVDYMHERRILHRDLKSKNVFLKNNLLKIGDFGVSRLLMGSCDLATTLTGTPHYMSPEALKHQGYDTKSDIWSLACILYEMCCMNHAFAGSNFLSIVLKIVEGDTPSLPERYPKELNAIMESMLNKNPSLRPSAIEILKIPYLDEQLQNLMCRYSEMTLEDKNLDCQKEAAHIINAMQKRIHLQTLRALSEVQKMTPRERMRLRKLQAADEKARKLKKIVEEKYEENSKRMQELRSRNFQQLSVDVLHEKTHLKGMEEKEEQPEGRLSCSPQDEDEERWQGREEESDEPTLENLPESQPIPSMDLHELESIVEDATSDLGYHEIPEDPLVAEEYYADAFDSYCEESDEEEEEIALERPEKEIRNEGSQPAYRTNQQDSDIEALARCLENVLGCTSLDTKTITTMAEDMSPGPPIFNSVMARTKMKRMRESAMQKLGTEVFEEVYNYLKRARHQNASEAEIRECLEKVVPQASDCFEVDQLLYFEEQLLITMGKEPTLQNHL
Sequence of Histamine H3 receptor (Homo sapiens) (Q9Y5N1 whole entry): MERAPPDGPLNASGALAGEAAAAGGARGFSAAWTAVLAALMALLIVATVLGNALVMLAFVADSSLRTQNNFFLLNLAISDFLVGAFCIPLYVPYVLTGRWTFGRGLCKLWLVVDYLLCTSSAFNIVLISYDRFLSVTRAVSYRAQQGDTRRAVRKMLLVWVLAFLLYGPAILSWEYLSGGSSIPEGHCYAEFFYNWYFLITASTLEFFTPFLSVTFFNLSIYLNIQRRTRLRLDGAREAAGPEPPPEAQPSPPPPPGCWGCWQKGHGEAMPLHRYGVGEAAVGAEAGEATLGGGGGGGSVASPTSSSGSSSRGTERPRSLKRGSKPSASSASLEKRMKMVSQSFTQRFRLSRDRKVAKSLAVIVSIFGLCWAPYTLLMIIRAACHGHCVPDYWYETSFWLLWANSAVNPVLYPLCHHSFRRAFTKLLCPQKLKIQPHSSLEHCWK
Sequence of Sigma intracellular receptor 2 (Homo sapiens) (Q5BJF2 whole entry): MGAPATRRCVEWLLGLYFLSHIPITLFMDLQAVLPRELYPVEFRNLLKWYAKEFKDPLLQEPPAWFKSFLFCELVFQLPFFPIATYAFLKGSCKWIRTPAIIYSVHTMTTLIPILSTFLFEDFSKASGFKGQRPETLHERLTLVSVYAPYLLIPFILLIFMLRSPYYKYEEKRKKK

O=C(c1ccc(F)cc1)N1CC(COc2ccc(Br)cc2)(C(=O)O)C1 [PF-04475866]
inhibition [1]: 20.3% | Ki (D(1A) dopamine receptor): 10 µM

COc1ccc2cc(OCC3(C(=O)O)CN(C(=O)c4ccc(F)cc4)C3)ccc2c1 [PF-04418948]
residual activity [2]: 74% | residual activity [3]: 100% | inhibition (Histamine H4 receptor): -4% | Ki (Thromboxane A2 receptor): > 10 µM (not active) | residual activity [4]: 94% | residual activity [5]: 91% | residual activity [6]: 85% | IC50 [7]: 9.7 µM | Ki [7]: 4.8 µM | inhibition ([7]; Compound concentration 10.0 uM): 51% | residual activity [8]: 95% | inhibition [9]: 9% | inhibition [10]: 3% | residual activity [11]: 35% | residual activity [12]: 84% | inhibition [13]: -8.97% | residual activity [14]: 95% | residual activity [15]: 90% | inhibition [16]: 3% | residual activity [17]: 72% | residual activity [18]: 94% | residual activity [19]: 91% | residual activity [20]: 87% | residual activity [21]: 89% | inhibition [22]: 10% | residual activity [23]: 99% | residual activity [24]: 74% | residual activity [25]: 87% | residual activity [26]: 89% | inhibition [27]: 9% | residual activity [28]: 96% | residual activity [29]: 93% | inhibition [30]: -1.29% | residual activity [31]: 79% | residual activity [32]: 76% | residual activity [33]: 84% | residual activity [34]: 86% | inhibition [35]: 6% | inhibition [36]: 13% | residual activity [37]: 78% | residual activity [38]: 87% | residual activity [39]: 76% | inhibition [40]: -3% | residual activity [41]: 94% | residual activity [42]: 89%

— ChEMBL document CHEMBL4507298 (2021)
